This test has as its target Transitional endoplasmic reticulum ATPase (Homo sapiens, UniProt P55072, C522A). Briefly: C522A mutant p97 ATPase inhibitors, dose response, counter-screen for p97 inhibitor project, biochemical, luminescence (AID 1544). (In general: A counterscreen serves to expose hits that act by an unwanted route or on another target.)
Sequence of Transitional endoplasmic reticulum ATPase (P55072 2-806 C522A limits assumed): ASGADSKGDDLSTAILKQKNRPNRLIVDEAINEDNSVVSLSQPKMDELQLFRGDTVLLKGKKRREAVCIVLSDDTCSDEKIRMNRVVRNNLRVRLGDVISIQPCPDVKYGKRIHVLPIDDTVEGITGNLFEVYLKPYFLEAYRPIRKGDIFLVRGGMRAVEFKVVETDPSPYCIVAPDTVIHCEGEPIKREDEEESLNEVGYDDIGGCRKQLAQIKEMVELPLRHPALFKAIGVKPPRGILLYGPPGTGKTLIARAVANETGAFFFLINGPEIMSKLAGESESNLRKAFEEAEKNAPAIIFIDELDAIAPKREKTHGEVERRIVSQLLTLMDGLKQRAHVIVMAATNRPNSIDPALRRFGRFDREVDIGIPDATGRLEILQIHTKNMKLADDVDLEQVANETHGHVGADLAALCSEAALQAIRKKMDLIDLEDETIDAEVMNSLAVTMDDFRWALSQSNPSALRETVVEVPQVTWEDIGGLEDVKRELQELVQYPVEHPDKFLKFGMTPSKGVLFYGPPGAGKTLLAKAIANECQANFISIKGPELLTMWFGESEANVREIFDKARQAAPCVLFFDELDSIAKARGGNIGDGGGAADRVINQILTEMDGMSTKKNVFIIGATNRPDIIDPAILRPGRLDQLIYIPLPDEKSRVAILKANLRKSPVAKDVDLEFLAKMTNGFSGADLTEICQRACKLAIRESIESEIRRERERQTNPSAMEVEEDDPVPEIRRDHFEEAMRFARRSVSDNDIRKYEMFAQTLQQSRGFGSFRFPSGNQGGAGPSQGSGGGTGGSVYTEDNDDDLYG
Consider `Oc1ccc(CN=Nc2ccnc3cc(Cl)ccc23)cc1O` [(4Z)-4-[[2-(7-chloroquinolin-4-yl)hydrazinyl]methylidene]-2-hydroxycyclohexa-2,5-dien-1-one], for which the IC50 (usually the concentration at which inhibition is half-maximal) was greater than 50 µM. On to `NS(=O)(=O)c1ccc(N=NCc2ccc(O)c(O)c2O)c([N+](=O)[O-])c1` [4-[[(E)-(2,3-dihydroxy-4-oxo-1-cyclohexa-2,5-dienylidene)methyl]hydrazo]-3-nitrobenzenesulfonamide], for which the 50% inhibitory concentration (IC50) is greater than 50 µM. For the compound `Cc1ccc(C)c(SCC(=O)OCC(=O)C(C#N)c2nc3ccccc3[nH]2)c1` (configuration not stated) [MLS000392255], the IC50 was greater than 50 µM. As for `On1[o+]nc2c1CCc1nc(-c3ccccc3)[n-]c1-2` [3-oxidanidyl-7-phenyl-4,5-dihydro-1H-imidazo[4,5-g][2,1,3]benzoxadiazol-3-ium], the figure is greater than 50 µM. As for `Cc1ccc(SCC(=O)C(C#N)c2nc3ccccc3s2)cc1` (configuration not stated) [(2Z)-2-(3H-1,3-benzothiazol-2-ylidene)-3-keto-4-(p-tolylthio)butyronitrile], the figure is greater than 50 µM. As for `CN(C)[C@@H]1C(=O)C(C(N)=O)C(=O)[C@@]2(O)C(=O)C3C(=O)c4c(O)cccc4[C@@](C)(O)[C@H]3[C@H](O)[C@@H]12` (stereo partly drawn) [(2E,4S,4aR,5S,5aR,6S,12aS)-2-[azanyl(oxidanyl)methylidene]-4-(dimethylamino)-6-methyl-5,6,10,11,12a-pentakis(oxidanyl)-4,4a,5,5a-tetrahydrotetracene-1,3,12-trione], the figure is greater than 50 µM; as for `COc1ccc(CN=Nc2nnc(-c3ccccc3)c(=O)[nH]2)cc1` [4-methoxybenzaldehyde (5-oxo-6-phenyl-4,5-dihydro-1,2,4-triazin-3-yl)hydrazone], greater than 50 µM.
